# Assay results: PubChem BioAssay AID1963982 (Molecular Pharmacology Branch, DTP, NCI, 2024)
# Test system: 313798-341-R-J2-PDC spheroids, viability
# Assay: Anticancer human tumor 313798-341-R-J2-PDC patient-derived cervical squamous cell carcinoma cell line growth inhibition [PI3K]
# Settings: spheroids with HUVEC and MSC; for IC50: curve of first compound; for viability, T/C: stronger effect = lower value
# How it was run: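 Tumor cells were combined with HUVEC and MSCs into spheroids, then dosed with PI3K-inhibitor combinations over half-log ranges capped near clinical Cmax or 10 microM.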
# [1] = second compound 0.00316 µM, first compound 0.0316 µM
# [2] = second compound 0.00316 µM, first compound 0.1 µM
# [3] = second compound 0.00316 µM, first compound 0.316 µM
# [4] = second compound 0.00316 µM, first compound 1 µM
# [5] = second compound 0.00316 µM, first compound 3.16 µM
# [6] = second compound 0.00316 µM, first compound 10 µM
# [7] = second compound 0.01 µM, first compound 0.0316 µM
# [8] = second compound 0.01 µM, first compound 0.1 µM
# [9] = second compound 0.01 µM, first compound 0.316 µM
# [10] = second compound 0.01 µM, first compound 1 µM
# [11] = second compound 0.01 µM, first compound 3.16 µM
# [12] = second compound 0.01 µM, first compound 10 µM
# [13] = second compound 0.0316 µM, first compound 0.0316 µM
# [14] = second compound 0.0316 µM, first compound 0.1 µM
# [15] = second compound 0.0316 µM, first compound 0.316 µM
# [16] = second compound 0.0316 µM, first compound 1 µM
# [17] = second compound 0.0316 µM, first compound 3.16 µM
# [18] = second compound 0.0316 µM, first compound 10 µM
# [19] = second compound 0.1 µM, first compound 0.0316 µM
# [20] = second compound 0.1 µM, first compound 0.1 µM
# [21] = second compound 0.1 µM, first compound 0.316 µM
# [22] = second compound 0.1 µM, first compound 1 µM
# [23] = second compound 0.1 µM, first compound 3.16 µM
# [24] = second compound 0.1 µM, first compound 10 µM
# [25] = second compound 0.316 µM, first compound 0.0316 µM
# [26] = second compound 0.316 µM, first compound 0.1 µM
# [27] = second compound 0.316 µM, first compound 0.316 µM
# [28] = second compound 0.316 µM, first compound 1 µM
# [29] = second compound 0.316 µM, first compound 3.16 µM
# [30] = second compound 0.316 µM, first compound 10 µM
# [31] = second compound 1 µM, first compound 0.0316 µM
# [32] = second compound 1 µM, first compound 0.1 µM
# [33] = second compound 1 µM, first compound 0.316 µM
# [34] = second compound 1 µM, first compound 1 µM
# [35] = second compound 1 µM, first compound 3.16 µM
# [36] = second compound 1 µM, first compound 10 µM
# 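Also: spheroids exposed to compounds for seven days.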
# 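For viability, T/C in this document: 100% = DMSO vehicle control viability.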
compound,measurement,setting,value
CC1(C)CCC(CN2CCN(c3ccc(C(=O)NS(=O)(=O)c4ccc(NCC5CCOCC5)c([N+](=O)[O-])c4)c(Oc4cnc5[nH]ccc5c4)c3)CC2)=C(c2ccc(Cl)cc2)C1 + CC(Nc1ccc2c(c1)OCCn1cc(N3C(=O)OCC3C(F)F)nc1-2)C(N)=O,IC50,second compound 0.00316 µM,5.51 µM
same,IC50,second compound 0.01 µM,5.66 µM
same,IC50,second compound 0.0316 µM,5.41 µM
same,IC50,second compound 0.1 µM,4.71 µM
same,IC50,second compound 0.316 µM,2.19 µM
same,IC50,second compound 1 µM,0.609 µM
same,"viability, T/C",[1],93.1%
same,"viability, T/C",[2],92.4%
same,"viability, T/C",[3],95.5%
same,"viability, T/C",[4],89.4%
same,"viability, T/C",[5],81.3%
same,"viability, T/C",[6],16.9%
same,"viability, T/C",[7],100%
same,"viability, T/C",[8],93.2%
same,"viability, T/C",[9],98.5%
same,"viability, T/C",[10],90.7%
same,"viability, T/C",[11],84.2%
same,"viability, T/C",[12],16.5%
same,"viability, T/C",[13],92.6%
same,"viability, T/C",[14],86.3%
same,"viability, T/C",[15],89.5%
same,"viability, T/C",[16],93.2%
same,"viability, T/C",[17],78.3%
same,"viability, T/C",[18],17%
same,"viability, T/C",[19],94.1%
same,"viability, T/C",[20],102%
same,"viability, T/C",[21],90.4%
same,"viability, T/C",[22],90.9%
same,"viability, T/C",[23],67.2%
same,"viability, T/C",[24],17%
same,"viability, T/C",[25],79.7%
same,"viability, T/C",[26],69.7%
same,"viability, T/C",[27],78.2%
same,"viability, T/C",[28],60.1%
same,"viability, T/C",[29],44.8%
same,"viability, T/C",[30],16.5%
same,"viability, T/C",[31],51.6%
same,"viability, T/C",[32],49.7%
same,"viability, T/C",[33],51.8%
same,"viability, T/C",[34],49.2%
same,"viability, T/C",[35],35.8%
same,"viability, T/C",[36],14%
Cn1nccc1Nc1nccc(-c2ccn(C(CO)c3ccc(Cl)c(F)c3)c(=O)c2)n1 (centres undefined) + COc1c(OCCCN2CCOCC2)ccc2c3n(c(=NC(=O)c4cnc(N)nc4)nc12)CCN3,IC50,second compound 0.00316 µM,> 10 µM
same,IC50,second compound 0.01 µM,> 10 µM
same,IC50,second compound 0.0316 µM,> 10 µM
same,IC50,second compound 0.1 µM,< 0.0316 µM
same,IC50,second compound 0.316 µM,< 0.0316 µM
same,IC50,second compound 1 µM,< 0.0316 µM
same,"viability, T/C",[1],100%
same,"viability, T/C",[2],97%
same,"viability, T/C",[3],106%
same,"viability, T/C",[4],111%
same,"viability, T/C",[5],102%
same,"viability, T/C",[6],90.1%
same,"viability, T/C",[7],104%
same,"viability, T/C",[8],108%
same,"viability, T/C",[9],97.8%
same,"viability, T/C",[10],106%
same,"viability, T/C",[11],94%
same,"viability, T/C",[12],89.5%
same,"viability, T/C",[13],75.8%
same,"viability, T/C",[14],83.2%
same,"viability, T/C",[15],69.5%
same,"viability, T/C",[16],77.1%
same,"viability, T/C",[17],66.5%
same,"viability, T/C",[18],55.6%
same,"viability, T/C",[19],38.2%
same,"viability, T/C",[20],43.3%
same,"viability, T/C",[21],41%
same,"viability, T/C",[22],38.4%
same,"viability, T/C",[23],34.7%
same,"viability, T/C",[24],32%
same,"viability, T/C",[25],16.6%
same,"viability, T/C",[26],15.3%
same,"viability, T/C",[27],12.2%
same,"viability, T/C",[28],9.87%
same,"viability, T/C",[29],9.43%
same,"viability, T/C",[30],7.53%
same,"viability, T/C",[31],10.9%
same,"viability, T/C",[32],9.68%
same,"viability, T/C",[33],7.11%
same,"viability, T/C",[34],5.54%
same,"viability, T/C",[35],4.07%
same,"viability, T/C",[36],2.53%
CC1(C)CCC(Nc2ncc(C(F)(F)F)c(-c3c[nH]c4c(P(C)(C)=O)c(C#N)ccc34)n2)CN1 (centres undefined),"viability, T/C",compound 0.0316 µM,56.6% [middle of 4 runs]
same,"viability, T/C",compound 0.1 µM,46.7% [middle of 4 runs]
same,"viability, T/C",compound 0.316 µM,50.4% [middle of 4 runs]
same,"viability, T/C",compound 1 µM,53.8% [middle of 4 runs]
same,"viability, T/C",compound 3.16 µM,58.9% [middle of 4 runs]
